What follows are molecules tested on GM1 production in Jurkat cells (assay: cells). Settings: Homo sapiens, Jurkat, 72 h.
Format: cell-based
With CC1(C)Cc2cc(-c3cc(F)cc(C(F)(F)F)c3)ccc2C1NC(=O)O[C@@H]1CN2CCC1CC2 (stereo partly drawn) [Example 246, (S)-quinuclidin-3-yl (5-(3-fluoro-5-(trifluoromethyl)phenyl)-2,2-dimethyl-2,3-dihydro-1H-inden-1-yl)carbamate] the IC50 was 14.7 nM. Cc1cc(-c2ccc3c(c2)CC(C)(C)C3NC(=O)O[C@@H]2CN3CCC2CC3)ccc1OC(F)(F)F (stereo partly drawn) [Example 247, (S)-quinuclidin-3-yl (2,2-dimethyl-5-(3-methyl-4-(trifluoromethoxy)phenyl)-2,3-dihydro-1H-inden-1-yl)carbamate] gave an IC50 of 41 nM. For CSc1cc(-c2ccc3c(c2)CC(C)(C)C3NC(=O)O[C@@H]2CN3CCC2CC3)cc(C(F)(F)F)c1 (stereo partly drawn) [Example 248, (S)-quinuclidin-3-yl (2,2-dimethyl-5-(3-(methylthio)-5-(trifluoromethyl)phenyl)-2,3-dihydro-1H-inden-1-yl)carbamate], the IC50 was 14.9 nM. CC1(C)Cc2cc(-c3ccc(OC(F)(F)F)c(F)c3)ccc2C1NC(=O)O[C@@H]1CN2CCC1CC2 (stereo partly drawn) [Example 249, (S)-quinuclidin-3-yl (5-(3-fluoro-4-(trifluoromethoxy)phenyl)-2,2-dimethyl-2,3-dihydro-1H-inden-1-yl)carbamate] showed an IC50 of 37 nM. For CCOc1cc(C(F)(F)F)ccc1-c1ccc2c(c1)CC(C)(C)C2NC(=O)O[C@@H]1CN2CCC1CC2 (stereo partly drawn) [Example 250, (S)-quinuclidin-3-yl (5-(2-ethoxy-4-(trifluoromethyl)phenyl)-2,2-dimethyl-2,3-dihydro-1H-inden-1-yl)carbamate], the IC50 was 33 nM. For COc1ccc(C(F)(F)F)cc1-c1ccc2c(c1)CC(C)(C)C2NC(=O)O[C@@H]1CN2CCC1CC2 (stereo partly drawn) [Example 251, (S)-quinuclidin-3-yl (5-(2-methoxy-5-(trifluoromethyl)phenyl)-2,2-dimethyl-2,3-dihydro-1H-inden-1-yl)carbamate], the IC50 was 7.2 nM. CC1(C)Cc2cc(-c3ccc(C(F)(F)F)cc3C(F)(F)F)ccc2C1NC(=O)O[C@@H]1CN2CCC1CC2 (stereo partly drawn) [Example 252, (S)-quinuclidin-3-yl (5-(2,4-bis(trifluoromethyl)phenyl)-2,2-dimethyl-2,3-dihydro-1H-inden-1-yl)carbamate] was tested, and the IC50 was 43.9 nM. In the case of Cc1c(Cl)cccc1-c1ccc2c(c1)CC(C)(C)C2NC(=O)O[C@@H]1CN2CCC1CC2 (stereo partly drawn) [Example 253, (S)-quinuclidin-3-yl (5-(3-chloro-2-methylphenyl)-2,2-dimethyl-2,3-dihydro-1H-inden-1-yl)carbamate], the IC50 is reported as 37.2 nM. COc1cc(-c2ccc3c(c2)CC(C)(C)C3NC(=O)O[C@@H]2CN3CCC2CC3)ccc1C (stereo partly drawn) [Example 254, (S)-quinuclidin-3-yl (5-(3-methoxy-4-methylphenyl)-2,2-dimethyl-2,3-dihydro-1H-inden-1-yl)carbamate] was tested, and the IC50 was 45.2 nM. For Cc1cc(-c2ccc3c(c2)CC(C)(C)C3NC(=O)O[C@@H]2CN3CCC2CC3)ccc1F (stereo partly drawn) [Example 255, (S)-quinuclidin-3-yl (5-(4-fluoro-3-methylphenyl)-2,2-dimethyl-2,3-dihydro-1H-inden-1-yl)carbamate], the IC50 was 35.8 nM. CCOc1ccc(F)cc1-c1ccc2c(c1)CC(C)(C)C2NC(=O)O[C@@H]1CN2CCC1CC2 (stereo partly drawn) [Example 256, (S)-quinuclidin-3-yl (5-(2-ethoxy-5-fluorophenyl)-2,2-dimethyl-2,3-dihydro-1H-inden-1-yl)carbamate] gave an IC50 of 24.6 nM. In the case of CCCOc1cc(F)cc(-c2ccc3c(c2)CC(C)(C)C3NC(=O)O[C@@H]2CN3CCC2CC3)c1 (stereo partly drawn) [Example 257, (S)-quinuclidin-3-yl (5-(3-fluoro-5-propoxyphenyl)-2,2-dimethyl-2,3-dihydro-1H-inden-1-yl)carbamate], the IC50 is reported as 27.4 nM. In the case of CC1(C)Cc2cc(-c3cc(C(F)(F)F)cc(C(F)(F)F)c3)ccc2C1NC(=O)O[C@@H]1CN2CCC1CC2 (stereo partly drawn) [Example 258, (S)-quinuclidin-3-yl (5-(3,5-bis(trifluoromethyl)phenyl)-2,2-dimethyl-2,3-dihydro-1H-inden-1-yl)carbamate], the IC50 is reported as 17.4 nM. In the case of Cc1ccc(-c2ccc3c(c2)CC(C)(C)C3NC(=O)O[C@@H]2CN3CCC2CC3)cc1Cl (stereo partly drawn) [Example 259, (S)-quinuclidin-3-yl (5-(3-chloro-4-methylphenyl)-2,2-dimethyl-2,3-dihydro-1H-inden-1-yl)carbamate], the IC50 is reported as 10.2 nM. Cc1ccc(C)c(-c2ccc3c(c2)CC(C)(C)C3NC(=O)O[C@@H]2CN3CCC2CC3)c1 (stereo partly drawn) [Example 260, (S)-quinuclidin-3-yl (5-(2,5-dimethylphenyl)-2,2-dimethyl-2,3-dihydro-1H-inden-1-yl)carbamate] was tested, and the IC50 was 14.4 nM. CC1(C)Cc2cc(-c3ccc(F)c(Cl)c3)ccc2C1NC(=O)O[C@@H]1CN2CCC1CC2 (stereo partly drawn) [Example 261, (S)-quinuclidin-3-yl (5-(3-chloro-4-fluorophenyl)-2,2-dimethyl-2,3-dihydro-1H-inden-1-yl)carbamate] was tested, and the IC50 was 51.5 nM. CCOc1ccc(-c2ccc3c(c2)CC(C)(C)C3NC(=O)O[C@@H]2CN3CCC2CC3)cn1 (stereo partly drawn) [Example 262, (S)-quinuclidin-3-yl (5-(6-ethoxypyridin-3-yl)-2,2-dimethyl-2,3-dihydro-1H-inden-1-yl)carbamate] was tested, and the IC50 was 34.4 nM. For CCOc1cc(-c2ccc3c(c2)CC(C)(C)C3NC(=O)O[C@@H]2CN3CCC2CC3)ccn1 (stereo partly drawn) [Example 263, (S)-quinuclidin-3-yl (5-(2-ethoxypyridin-4-yl)-2,2-dimethyl-2,3-dihydro-1H-inden-1-yl)carbamate], the IC50 was 34.9 nM. In the case of CC(C)Oc1cc(-c2ccc3c(c2)CC(C)(C)C3NC(=O)O[C@@H]2CN3CCC2CC3)ccn1 (stereo partly drawn) [Example 264, (S)-quinuclidin-3-yl (5-(2-isopropoxypyridin-4-yl)-2,2-dimethyl-2,3-dihydro-1H-inden-1-yl)carbamate], the IC50 is reported as 14.4 nM. In the case of CCCOc1ccc(-c2ccc3c(c2)CC(C)(C)C3NC(=O)O[C@@H]2CN3CCC2CC3)cn1 (stereo partly drawn) [Example 265, (S)-quinuclidin-3-yl (2,2-dimethyl-5-(6-propoxypyridin-3-yl)-2,3-dihydro-1H-inden-1-yl)carbamate], the IC50 is reported as 6.7 nM. With CCCCOc1ccc(-c2ccc3c(c2)CC(C)(C)C3NC(=O)O[C@@H]2CN3CCC2CC3)cn1 (stereo partly drawn) [Example 266, (S)-quinuclidin-3-yl (5-(6-butoxypyridin-3-yl)-2,2-dimethyl-2,3-dihydro-1H-inden-1-yl)carbamate] the IC50 was 4.7 nM. Molecule COCCOc1ccc(-c2ccc3c(c2)CC(C)(C)C3NC(=O)O[C@@H]2CN3CCC2CC3)cn1 (stereo partly drawn) [Example 267, (S)-quinuclidin-3-yl (5-(6-(2-methoxyethoxy)pyridin-3-yl)-2,2-dimethyl-2,3-dihydro-1H-inden-1-yl)carbamate] has an IC50 of 83.1 nM. CC(C)COc1ccc(-c2ccc3c(c2)CC(C)(C)C3NC(=O)O[C@@H]2CN3CCC2CC3)cn1 (stereo partly drawn) [Example 268, (S)-quinuclidin-3-yl (5-(6-isobutoxypyridin-3-yl)-2,2-dimethyl-2,3-dihydro-1H-inden-1-yl)carbamate] was tested, and the IC50 was 2.5 nM. For CC(C)Cc1cccc(-c2ccc3c(c2)CC(C)(C)C3NC(=O)O[C@@H]2CN3CCC2CC3)c1 (stereo partly drawn) [Example 269, (S)-quinuclidin-3-yl (5-(3-isobutylphenyl)-2,2-dimethyl-2,3-dihydro-1H-inden-1-yl)carbamate], the IC50 was 6.5 nM. With CCCCOc1ccc(-c2ccc3c(c2)CC(C)(C)C3NC(=O)O[C@@H]2CN3CCC2CC3)cc1 (stereo partly drawn) [Example 270, (S)-quinuclidin-3-yl (5-(4-butoxyphenyl)-2,2-dimethyl-2,3-dihydro-1H-inden-1-yl)carbamate] the IC50 was 2.3 nM.

Reference: US12522602B2, “Derivatives having 2,3-dihydro-1H-indene or 2,3-dihydrobenzofuran moiety or pharmaceutically acceptable salt thereof and pharmaceutical compositions comprising the same” (YUHAN CORPORATION, priority 2019, dated 2026)
